Reference: patent US20140142170A1, “COMPOSITION AND METHOD FOR INFLUENCING ENERGY METABOLISM AND TREATING METABOLIC AND OTHER DISORDERS” (SIRTUIN VALLEY OY, priority 2010, published 2014)
“Also recorded” adds a separate entry of the source.

What was measured:
SIRT1 [1] = experiment: SIRT1 protein expression, immunoblot and densitometry in 3T3 L1 preadipocytes; type: cell-based; conditions: 3T3 L1 preadipocytes, 60 μM, 24 hours; for SIRT1 protein expression, Derivative vs. GR24: derivative compared to GR24 (=100%)
Protocol: (§1) 3T3L1 cells were purchased from American Type Culture Collection (Manassas, Va., USA) and cultured in DMEM media containing 4.5 g/l glucose supplemented with 10% fetal bovine serum (Hyclone), 2 mM L-glutamine (Gibco), 100 U/ml penicillin, and 100 μg/ml streptomycin (Gibco). The cells were cultured at 37° C. in a humidified atmosphere with 10% CO2.
(§2) The 3T3L1 cells were plated at 6×10^4 cells/well in 12 well plates and incubated at 37° C. in a humidified atmosphere with 10% CO2. The media was removed after 24 hours and the cells were treated with 60 μM GR24 individually and in combination with 60 resveratrol and 60 μM pinosylvin, and incubated for 24 hours at 37° C. in a humidified atmosphere with 10% CO2. The media was removed, cells were washed with PBS, and cell lysates were collected on ice. Proteins were extracted using RIPA buffer along with protease and phosphatase inhibitors. Lysates were centrifuged for 30 min at high speed; supernatant was collected and stored at […] until further analysis. The vehicle controls were 3T3 L1 cells without any treatment with drugs or other compounds. The drugs or compounds that were used in all the experiments were dissolved or diluted in dimethylsulfoxide (DMSO) as diluent. In all experiments, the controls were treated with the same volume of DMSO as was used to dissolve drugs or compounds in compound-treated cells to show and ensure that the actual change in protein expression in different treatments was due solely to the compounds or combination of compounds and not to the DMSO.
(§3) Protein concentrations were measured using a BCA (bicinchoninic acid) protein assay kit (Cat.#23225; Pierce, Rockford, Ill.). Twenty (20) μg/lane of total cellular protein samples containing NuPAGE LDS sample buffer (Invitrogen) and reducing agent were loaded into 4-12% NuPAGE Bis-Tris gels (Invitrogen), subjected to gel electrophoresis, and transferred to polyvinylidene fluoride membranes (Amersham). For SIRT1 proteins, membranes were blocked in 0.05% TBS-Tween with 3% milk for 1 hour, incubated overnight at +4° C. with SIRT1 primary antibodies (Cat.#07-131, Millipore). For phospho-AMPKα and AMPKα proteins, blocking was done for 1 hour in 0.1% TBS-Tween with 5% milk. The membranes were incubated overnight at +4° C. with phospho-AMPKα (Cat. #2535, Cell Signaling) and AMPKα (Cat.#2532, Cell Signaling) primary antibodies. Horseradish peroxidase-conjugated anti-rabbit antibodies (Cat. #NA934V GE Health Care, Amersham, U.K) were used as secondary antibodies. For α-tubulin (loading control), membranes were blocked in 0.05% PBS-Tween with 3% milk for 1 hour, incubated with α-tubulin (Cat.# B-5-1-2, Sigma) primary antibodies for 1 hour at room temperature and horseradish peroxidase-conjugated anti-mouse (Cat. # NA 931V GE Health Care, Amersham, U.K.) IgG antibodies were used as secondary antibodies.
(§4) The membranes were developed using chemiluminescence (ECL plus, GE Health Care), and images were captured in an Image Quant RT-ECL machine (version 1.0.1; GE Health Care). Densitometry and quantification of the bands were done by applying Quantity One software (Bio-Rad). The expression levels of the proteins were normalized to α-tubulin protein levels.
3T3L1 cells were purchased from American Type Culture Collection (Manassas, Va., USA) and cultured in DMEM media containing 4.5 g/l glucose supplemented with 10% fetal bovine serum (Hyclone), 2 mM L-glutamine (Gibco) and 100 U/ml penicillin, 100 μg/ml streptomycin (Gibco). The cells were cultured at 37° C. in a humidified atmosphere with 10% CO2. 3T3L1 preadipocytes were plated at 1×10^5 cells/well in 6 well plates and incubated at 37° C. in a humidified atmosphere with 10% CO2. […] In all experiments, the controls were treated with the same volume of DMSO as was used to dissolve compounds in compound-treated cells to show and ensure that the actual change in protein expression in different treatments was only due to the compounds DMSO. […]

PGC-1α = PGC-1α protein expression, immunoblot and densitometry in 3T3 L1 preadipocytes; type: cell-based; conditions: 60 μM, 24 hours; for PGC-1α protein expression, Derivative vs. GR24: derivative compared to GR24 (=100%)
Protocol: as §1, with “CO2. […]” for “CO2.”
as §3, §4
PGC-1α as an indicator of SIRT1 activity: PGC-1α has been extensively described as a master regulator of mitochondrial biogenesis. […] When SIRT1 protein expression is induced, it interacts with and deacetylates PGC-1α in an NAD-dependent manner. Thus SIRT1 acts as a modulator of PGC-1a (Rodgers J T et al, Nature 2005). The effects of resveratrol, a nonselective SIRT1 activator, were associated with an induction of genes for oxidative phosphorylation and mitochondrial biogenesis, and were largely explained by a resveratrol-mediated decrease in PGC-1α acetylation and an increase in PGC-1α activity (Lagouge M, Cell 2006). Therefore, PGC-1α protein expression serves as an indicator of SIRT1 activity.
3T3L1 cells were purchased from American Type Culture Collection (Manassas, Va., USA) and cultured in DMEM media containing 4.5 g/l glucose supplemented with 10% fetal bovine serum (Hyclone), 2 mM L-glutamine (Gibco) and 100 U/ml penicillin, 100 μg/ml streptomycin (Gibco). The cells were cultured at 37° C. in a humidified atmosphere with 10% CO2. 3T3L1 preadipocytes were plated at 1×10^5 cells/well in 6 well plates and incubated at 37° C. in a humidified atmosphere with 10% CO2. The media was removed after 24 hours and the cells were treated with 60 μM GR24 or with 60 μM 1A, 1B, 5A, 5B, 6A, or 7A and incubated for 24 hours at 37° C. in a humidified atmosphere with 10% CO2. In all experiments, the controls were treated with the same volume of DMSO as was used to dissolve compounds in compound-treated cells to show and ensure that the actual change in protein expression in different treatments was only due to the compounds […]. The media was removed, cells were washed with PBS and cell lysates were collected on ice. Proteins were extracted using RIPA buffer along with protease and phosphatase inhibitors. Lysates were centrifuged for 30 min at high speed; supernatant was collected and stored at −70° C. until further analysis.

phospho-ACC = phospho-ACC expression, immunoblot in 3T3 L1 preadipocytes; type: cell-based; conditions: 3T3 L1 preadipocytes, 60 μM, 24 hours
SIRT1 [2] = target: T1, SIRT1 (Mus musculus, UniProt Q923E4); conditions: mice; cited from earlier work
T1 construct: host or cells: mice (in vivo)
T1 sequence (Q923E4 1-737): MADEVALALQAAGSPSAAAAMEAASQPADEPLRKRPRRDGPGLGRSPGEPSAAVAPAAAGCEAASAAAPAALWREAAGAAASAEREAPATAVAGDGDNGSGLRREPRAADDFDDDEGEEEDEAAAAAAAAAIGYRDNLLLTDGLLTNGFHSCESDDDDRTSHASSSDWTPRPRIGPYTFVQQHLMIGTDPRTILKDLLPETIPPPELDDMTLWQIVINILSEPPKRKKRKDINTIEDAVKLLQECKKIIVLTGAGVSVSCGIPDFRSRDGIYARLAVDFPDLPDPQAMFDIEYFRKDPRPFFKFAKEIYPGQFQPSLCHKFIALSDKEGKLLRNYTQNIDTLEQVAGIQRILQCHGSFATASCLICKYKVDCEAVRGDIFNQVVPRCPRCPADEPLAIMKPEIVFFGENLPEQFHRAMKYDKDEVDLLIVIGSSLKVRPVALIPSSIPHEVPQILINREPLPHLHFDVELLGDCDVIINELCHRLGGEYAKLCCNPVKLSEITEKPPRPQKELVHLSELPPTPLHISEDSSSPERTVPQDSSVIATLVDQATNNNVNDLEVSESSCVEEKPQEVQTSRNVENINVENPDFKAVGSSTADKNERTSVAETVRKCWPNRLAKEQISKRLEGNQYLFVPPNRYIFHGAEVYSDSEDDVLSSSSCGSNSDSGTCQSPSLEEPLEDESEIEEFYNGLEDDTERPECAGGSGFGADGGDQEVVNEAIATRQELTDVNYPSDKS

[3] = test system: mitochondria of 3T3L1 preadipocytes; experiment: Mitochondrial staining with MitoTracker green, confocal microscopy; type: cell-based; conditions: 60 μM, 24 hours
Protocol: The 3T3L1 preadipocytes were plated onto Ibidi u-slide 8 well plates at 1.6×10^4 cells/well and incubated at 37° C. in a humidified atmosphere with 10% CO2. The media was removed after 24 hours, the cells were treated with 60 μM GR24 and incubated for 24 hours at 37° C. in a humidified atmosphere with 10% CO2. After 24 hours of treatment, staining of mitochondria was done using 200 nM MitoTracker Mitochondrion-Selective Probes (Green FM probes Cat.#M7514, Invitrogen) according to the manufacturer's instructions. The cells were observed using a confocal microscope and images were taken at 40× oil immersion.
Preadipocytes were treated with DMSO (Vehicle control) (FIG. 5A), 60 μM resveratrol (FIG. 5B) or 60 μM strigolactone analog GR24 (FIG. 5C) for 24 hours. Next, preadipocytes were stained with MitoTracker green and observed under a confocal microscope at 40× oil immersion. […] The white oval shaped structures are nucleus and the white thread-like structures around the nucleus in the cytoplasm are mitochondria. When compared to the control, there was an increase in mitochondrial biogenesis represented by elongated mitochondria, and an increase in mitochondrial activation represented by the intensity of fluorescence, in cells treated with resveratrol and GR24. […] Thus, GR24 enhances both biogenesis and activity of mitochondria, which is necessary to generate ATP.

phospho-AMPK = phospho-AMPK expression / AMPK activation, immunoblot in 3T3 L1 preadipocytes; type: cell-based; conditions: 3T3 L1 preadipocytes, 60 μM, 24 hours
Protocol: as §1
as §2, with “The media was removed after 24 hours and the cells were treated with 60 μM GR24 individually and in combination with 60 resveratrol and 60 μM pinosylvin, and incubated for 24 hours at 37° C. in a humidified atmosphere with 10% CO2.” left out
as §3, §4

Row | Structure (SMILES) | SIRT1 protein expression compared to control (100%) (SIRT1 [1]) | SIRT1 protein expression, Derivative vs. GR24 (SIRT1 [1]) | PGC-1α protein expression compared to control (100%) (PGC-1α) | PGC-1α protein expression, Derivative vs. GR24 (PGC-1α) | phospho-ACC expression (phosphorylation of ACC) compared to control (phospho-ACC) | SIRT1 activity (SIRT1 [2]) | genes responsible for mitochondrial biogenesis (SIRT1 [2]) | mitochondrial activation (intensity of fluorescence) compared to control [3] | mitochondrial biogenesis (elongated mitochondria) compared to control [3] | phospho-AMPK expression compared to control (phospho-AMPK)
1 | CCC1=C[C@H](O/C=C2/C(=O)O[C@@H]3c4ccccc4C[C@H]23)OC1=O [Compound 1A] | 1A 186% | +11% | 1A 186% | +11% |  |  |  |  |  | 
2 | CCC1=C[C@H](O/C=C2/C(=O)O[C@H]3c4ccccc4C[C@@H]23)OC1=O [Compound 1B] | 1B 215% | +31% | 1B 215% | +31% |  |  |  |  |  | 
3 | CC1=C[C@H](O/C=C2/C(=O)O[C@H]3c4c(C)cccc4C[C@@H]23)OC1=O [Compound 5B] | 5B 327% | +48% | 5B 327% | +48% |  |  |  |  |  | 
4 | COc1cccc2c1[C@H]1OC(=O)/C(=C/O[C@H]3C=C(C)C(=O)O3)[C@H]1C2 [Compound 6A] | 6A 206% | +38% | 6A 206% | +38% |  |  |  |  |  | 
5 | COc1ccc(C)c2c1C[C@@H]1/C(=C\O[C@H]3C=C(C)C(=O)O3)C(=O)O[C@H]21 [Compound 7A] | 7A 218% | +30% | 7A 218% | +30% |  |  |  |  |  | 
6 | Oc1ccc(/C=C/c2cc(O)cc(O)c2)cc1 [resveratrol, 3,5,4″-trans-trihydroxystilbene] |  |  |  |  | no change | increases | stimulates | increase | increase | significant increase; also recorded: increased
